Measured values as given in US20190352638A1, “THERAPEUTIC MODULATION OF C-FOS IN THE EYE” (Children's Medical Center Corporation, priority 2016, published 2019).

Legend:
AP-1 = conditions: without activating transcription of retinoic acid response element; Fanjul et al. 1994; cited from earlier work
Vldlr^−/− mice = experiment: Neovascularization analysis (lesion number and size) in Vldlr^−/− retina whole mounts; assay type: in vivo, mouse
Protocol: (§1) All animal studies were performed according to protocols approved by the Institutional Animal Care and Use Committee at the Boston Children's Hospital. Vldlr^+/− (heterozygous) mice from Jackson Laboratory (Stock #002529) were bred to generate homozygous and wild type littermates. SR11302 (TOCRIS, Cat. 2476) was dissolved in corn oil. Vldlr^−/− pups were orally gavaged with SR11302 or corn oil as control at a dose of 1 mg/kg body weight daily from P5 to P15. P16 retinas were collected for PCR and neovascularization analysis.
Vldlr^−/− and wild type retina whole mounts were stained with isolectin IB4 and imaged with AxioObserver Z1 microscope (Zeiss) with a monochrome digital camera (AxioCam MRm; Zeiss) focusing on the terminal end of lesions on the RPE layer (usually at P16), and individual images were merged to create one retinal image using the automated merge function (mosaiX; Zeiss) in the software (AxioVision 4.6.3.0; Zeiss). Image J was used for quantification of subretinal neovascularization lesion number and areas in Vldlr^−/− retinas (National Institutes of Health, imagej.nih.gov/ij/) with designed plugins adapted from the method used to measure retinal neovascularization (SWIFT_NV) in the OIR model (Stahl, A. et al., Angiogenesis 12, 297-301 (2009)) which use a user-designated threshold to mark lesion structures that clearly stand out from background fluorescence of normal vessels, and can automatically remove small artifacts by selecting objects with a minimum size of 100 pixels. Other larger artifacts such as occasional cellular debris or retinal periphery with hyperfluorescence can be manually excluded from quantification. Lesion numbers and areas were quantified with researchers masked to the identity of samples.
At P16, mice were anesthetized, the eyes were enucleated and fixed in 4% paraformaldehyde followed by dissection and staining of the retinas with fluoresceinated isolectin IB4 (Invitrogen) to visualize subretinal neovascularization in whole mounted retinas. 3D reconstructed images were taken with confocal microscopy (Leica TCS SP2 AOBS) and z-stacks were 3D reconstructed using Volocity software (Perkin Elmer).
Subretinal injection into P0 neonate eyes was performed as previously described (Matsuda, T., et al., Proc. Nat. Acad. Sci. USA 101, 16-22 (2004), and Wang, S., et al., Developmental cell 30, 513-527 (2014)) under a dissection microscope. P0 Vldlr^−/− or wild type pups were anesthetized on ice for several minutes. The eyelid was prepped with Betadine, followed by water, then 70% ethanol using cotton swabs. A blade was used to gently cut open the eyelid. The injection needle was inserted into the eyeball through the incision until slight resistance was felt. Approximately 0.5 μl solution containing siRNA/siControl or AAV2/Control (10^12-10^13 gc/ml) was introduced into the subretinal space using a pulled angled glass pipette controlled by a FemtoJet (Eppendorf). The left eyes were uninjected for within-animal controls. Curved forceps were used to slowly close the eyelid. Mice were placed on a circulating water blanket for warmth. The retinas were collected at P12 for PCR assay and P16 for whole mount analysis.

[1] = test system: c-fos and its target genes (Mmp10, Il6, IlIb and Tnf); experiment: Quantitative RT-PCR of retinal mRNA; assay type: in vivo, mouse; conditions: oral gavage 1 mg/kg daily P5 to P15; Vldlr^−/− retinas
Protocol: as §1
Total RNA was extracted from mouse retinas using RNeasy kit (Qiagen) and reverse-transcribed with SuperScript® III Reverse Transcriptase (Thermo Fisher) to generate cDNA. Quantitative PCR was performed using a 7300 system (Applied Biosystems) with KAPA SYBR FAST qPCR Kits (Kapa Biosystems) using Rhodopsin, Pecam, Vldlr, CD68, CD11b, CD45, c-Fos, Il6, Il11b, Tnf, mmp10, Socs3, uPA, c-Jun, VEGF120, VEGF164, VEGF188 primers.
Subretinal injection into P0 neonate eyes was performed as previously described (Matsuda, T., et al., Proc. Nat. Acad. Sci. USA 101, 16-22 (2004), and Wang, S., et al., Developmental cell 30, 513-527 (2014)) under a dissection microscope. P0 Vldlr^−/− or wild type pups were anesthetized on ice for several minutes. The eyelid was prepped with Betadine, followed by water, then 70% ethanol using cotton swabs. […]

[2] = oral gavage 1 mg/kg daily P5 to P15, Vldlr^−/− mice
[3] = oral gavage, Vldlr^−/− retinas vs controls

CC1=C(/C=C/C(=C/C=C/C(C)=C/C(=O)O)c2ccc(C)cc2)C(C)(C)CCC1 [SR11302, (E,E,Z,E)-3-Methyl-7-(4-methylphenyl)-9-(2,6,6-trimethyl-1-cyclohexen-1-yl)-2,4,6,8-nonatetraenoic acid]
AP-1 activity (AP-1): specifically inhibits | lesion size decreased (Vldlr^−/− mice; [2]): 40% | total lesion number reduced (Vldlr^−/− mice; [2]): 48% | neovascularization (in words) (Vldlr^−/− mice; [3]): inhibited | total lesion number (in words) (Vldlr^−/− mice; [3]): reduced | total lesion size (in words) (Vldlr^−/− mice; [3]): reduced | c-FOS target genes (Il6, IlIb and Tnf) mRNA [1]: reduced | c-fos expression itself [1]: without influencing
